US20120149900A1, “FLUORINE CONTAINING COMPOUNDS AND METHODS OF USE THEREOF” (priority 2009, published 2012)
pIC50, pKi: −log10 of the molar value. “Also recorded” adds a separate entry of the source.

Key:
[1] = molecular target: T1, human delta 2 (DOP) receptor (Homo sapiens, UniProt P41143); experiment: Receptor binding assay, δ2 (DOP) (h) (agonist radioligand)
T1 construct: Cerep
Description: (§1) Receptor binding assays (Table 1 and FIGS. 1-4)

mu opioid receptor = mu opioid receptor (Homo sapiens, UniProt P35372); experiment: Cellular functional assay, mu opioid receptor; type: cell-based; conditions: EC50 values were not determined
kappa opioid receptor = kappa opioid receptor (Homo sapiens, UniProt P41145); experiment: Cellular functional assay, kappa opioid receptor; type: cell-based; conditions: EC50 values were not determined
kappa (KOP) receptor = molecular target: T2, kappa (KOP) receptor (Rattus norvegicus, UniProt P34975); experiment: Receptor binding assay, κ (KOP) (agonist radioligand)
T2 construct: Cerep
Description: as §1

[2] = In vivo pharmacokinetics and brain partition study; conditions: rats, fasted, single 1 mg/kg iv dose
Protocol: single 1 mg/kg iv dose administered in rats under fasted conditions plasma concentrations determined at 10 time points (2 mins -24 hrs) brain partition ratio determined at 1 and 4 hours

human mu (MOP) receptor = molecular target: T3, human mu (MOP) receptor (Homo sapiens, UniProt P35372); experiment: Receptor binding assay, μ (MOP) (h) (agonist radioligand)
T3 construct: Cerep
Description: as §1

[3] = molecular target: opioid (non-selective) receptor; experiment: Receptor binding assay, opioid (non-selective) (antagonist radioligand)
Description: as §1

T3 sequence (P35372 whole entry): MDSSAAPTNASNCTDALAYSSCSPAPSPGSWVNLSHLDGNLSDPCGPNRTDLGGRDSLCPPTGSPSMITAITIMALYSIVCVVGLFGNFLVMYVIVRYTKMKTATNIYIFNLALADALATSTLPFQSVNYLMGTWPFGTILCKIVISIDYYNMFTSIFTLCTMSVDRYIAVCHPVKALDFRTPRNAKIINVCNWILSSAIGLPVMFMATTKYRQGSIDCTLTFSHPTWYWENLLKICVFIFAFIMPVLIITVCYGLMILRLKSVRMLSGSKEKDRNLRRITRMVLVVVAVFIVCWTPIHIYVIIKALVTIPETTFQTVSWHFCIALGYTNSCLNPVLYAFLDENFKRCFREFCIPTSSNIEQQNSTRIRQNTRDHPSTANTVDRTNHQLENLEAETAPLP
T1 sequence (P41143 whole entry): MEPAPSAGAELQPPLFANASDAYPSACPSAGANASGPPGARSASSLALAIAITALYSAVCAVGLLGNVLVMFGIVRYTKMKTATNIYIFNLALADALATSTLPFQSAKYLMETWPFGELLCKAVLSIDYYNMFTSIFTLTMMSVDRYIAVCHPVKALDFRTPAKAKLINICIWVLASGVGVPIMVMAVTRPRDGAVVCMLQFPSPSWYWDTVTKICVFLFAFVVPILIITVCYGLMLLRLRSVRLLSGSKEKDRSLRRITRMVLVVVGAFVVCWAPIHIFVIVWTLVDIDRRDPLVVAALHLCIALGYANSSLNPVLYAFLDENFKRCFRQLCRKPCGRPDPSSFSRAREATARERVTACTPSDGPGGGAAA
T2 sequence (P34975 whole entry): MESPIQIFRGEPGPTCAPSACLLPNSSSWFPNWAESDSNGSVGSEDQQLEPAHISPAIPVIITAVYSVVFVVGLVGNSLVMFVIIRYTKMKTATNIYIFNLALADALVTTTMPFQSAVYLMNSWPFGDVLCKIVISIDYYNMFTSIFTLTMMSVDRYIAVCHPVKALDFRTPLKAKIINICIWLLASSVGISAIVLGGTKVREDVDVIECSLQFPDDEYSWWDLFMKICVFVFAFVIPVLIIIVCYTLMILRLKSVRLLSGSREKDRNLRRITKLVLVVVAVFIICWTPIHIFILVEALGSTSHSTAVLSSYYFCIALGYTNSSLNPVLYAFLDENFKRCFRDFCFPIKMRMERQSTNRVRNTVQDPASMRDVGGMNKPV
Sequence of mu opioid receptor (P35372 whole entry): as the sequence (P35372 whole entry) above
Sequence of kappa opioid receptor (P41145 whole entry): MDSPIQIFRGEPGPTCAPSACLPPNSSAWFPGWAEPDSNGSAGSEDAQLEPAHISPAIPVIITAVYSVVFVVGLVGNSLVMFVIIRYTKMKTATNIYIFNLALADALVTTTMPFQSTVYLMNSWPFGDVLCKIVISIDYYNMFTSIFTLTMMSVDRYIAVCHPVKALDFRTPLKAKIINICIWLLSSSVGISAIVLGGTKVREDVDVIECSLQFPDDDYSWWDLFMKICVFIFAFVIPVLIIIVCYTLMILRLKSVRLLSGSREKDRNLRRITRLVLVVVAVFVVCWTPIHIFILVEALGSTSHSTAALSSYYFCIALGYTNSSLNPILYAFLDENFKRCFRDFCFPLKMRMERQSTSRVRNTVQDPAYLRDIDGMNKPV

## CN1CC[C@]23c4c5ccc(F)c4O[C@H]2[C@@H](O)C=C[C@H]3[C@H]1C5 [F-morphine]
[1]
  Delta: binding: no observed binding; also recorded: no significant binding up to 10 uM
  pIC50: < 5.00
Mu opioid receptor
  function at mu opioid receptor: agonist
Kappa opioid receptor
  function at kappa opioid receptor: agonist
Kappa (KOP) receptor
  pIC50: 5.07
  pKi: 5.25
Kappa (KOP) receptor; agonist radioligand
  nH: 1.1
[2]; rat, brain/plasma, at 1 and 4 hours, read-out: brain/plasma ratio
  Kp at 4 h: 2 to 3
[2]
  brain partition (in words): partitions well into the brain
Human mu (MOP) receptor
  pIC50: 6.43
  pKi: 6.82
Human mu (MOP) receptor; agonist radioligand
  nH: 0.9
[3]
  pIC50: 6.10
  pKi: 6.24
